Laboratory results reported in patent US12398107B2, “Fungicidal nitroanilino substituted pyrazoles” (FMC Corporation, priority 2018, dated 2025).

How the values were obtained:
Assay type in all cases: in vivo
[1] = tested on: Blumeria graminis f. sp. tritici; experiment: Test C: wheat powdery mildew, preventive spray on wheat seedlings; conditions: 50 ppm, rated after 8 days, 100 = 100% disease control, 0 = no control
Source text: General protocol for preparing test suspensions for Tests A-F: the test compounds were first dissolved in acetone in an amount equal to 3% of the final volume and then suspended at the desired concentration (in ppm) in acetone and purified water (50/50 mix by volume) containing 250 ppm of the surfactant PEG400 (polyhydric alcohol esters). The resulting test suspensions were then used in Tests A-F. The test suspension was sprayed to the point of run-off on wheat seedlings. The following day the seedlings were inoculated with a spore dust of Blumeria graminis f. sp. tritici, (also known as Erysiphe graminis f. sp. tritici, the causal agent of wheat powdery mildew) and incubated in a growth chamber at 20° C. for 8 days, after which time visual disease ratings were made. A rating of 100 indicates 100% disease control and a rating of 0 indicates no disease control (relative to the controls). A dash (-) indicates the compound was not tested.

Septoria tritici = experiment: Test A: wheat leaf blotch, preventive spray on wheat seedlings; conditions: 50 ppm, 100 = 100% disease control, 0 = no control relative to controls
Source text: (§1) General protocol for preparing test suspensions for Tests A-F: the test compounds were first dissolved in acetone in an amount equal to 3% of the final volume and then suspended at the desired concentration (in ppm) in acetone and purified water (50/50 mix by volume) containing 250 ppm of the surfactant PEG400 (polyhydric alcohol esters). The resulting test suspensions were then used in Tests A-F. The test solution was sprayed to the point of run-off on wheat seedlings. The following day the seedlings were inoculated with a spore suspension of Septoria tritici (the causal agent of wheat leaf blotch) and incubated in a saturated atmosphere at 24° C. for 48 h, and then moved to a growth chamber at 20° C. for 17 days, after which time disease ratings were made. A rating of 100 indicates 100% disease control and a rating of 0 indicates no disease control (relative to the controls). A dash (-) indicates the compound was not tested.

Alternaria solani = experiment: Test F: tomato early blight, preventive spray on tomato seedlings; conditions: 50 ppm, 100 = 100% disease control, 0 = no control
Source text: (§2) General protocol for preparing test suspensions for Tests A-F: the test compounds were first dissolved in acetone in an amount equal to 3% of the final volume and then suspended at the desired concentration (in ppm) in acetone and purified water (50/50 mix by volume) containing 250 ppm of the surfactant PEG400 (polyhydric alcohol esters). The resulting test suspensions were then used in Tests A-F. The test suspension was sprayed to the point of run-off on tomato seedlings. The following day the seedlings were inoculated with a spore suspension of Alternaria solani (the causal agent of tomato early blight) and incubated in a saturated atmosphere at 27° C. for 48 h, and then moved to a growth chamber at 20° C. for 3 days, after which time visual disease ratings were made. A rating of 100 indicates 100% disease control and a rating of 0 indicates no disease control (relative to the controls). A dash (-) indicates the compound was not tested.

Phakopsora pachyrhizi = experiment: Test D: Asian soybean rust, preventive spray on soybean seedlings; conditions: 50 ppm, 100 = 100% disease control, 0 = no control
Source text: General protocol for preparing test suspensions for Tests A-F: the test compounds were first dissolved in acetone in an amount equal to 3% of the final volume and then suspended at the desired concentration (in ppm) in acetone and purified water (50/50 mix by volume) containing 250 ppm of the surfactant PEG400 (polyhydric alcohol esters). The resulting test suspensions were then used in Tests A-F.
The test solution was sprayed to the point of run-off on soybean seedlings. The following day the seedlings were inoculated with a spore suspension of Phakopsora pachyrhizi (the causal agent of Asian soybean rust) and incubated in a saturated atmosphere at 22° C. for 24 h and then moved to a growth chamber at 22° C. for 8 days, after which time visual disease ratings were made.
A rating of 100 indicates 100% disease control and a rating of 0 indicates no disease control (relative to the controls). A dash (-) indicates the compound was not tested.

[2] = tested on: Puccinia recondita f. sp. tritici; experiment: Test B: wheat leaf rust, preventive spray on wheat seedlings; conditions: 50 ppm, 100 = 100% disease control, 0 = no control relative to controls
Source text: as §1, with “Puccinia recondita f. sp.” for “Septoria”, “rust)” for “blotch)”, “20°” for “24°”, “24” for “48”, “7” for “17”

Botrytis cinerea = experiment: Test E: tomato Botrytis, preventive spray on tomato seedlings; conditions: 50 ppm, 100 = 100% disease control, 0 = no control
Source text: as §2, with “Botrytis cinerea” for “Alternaria solani”, “Botrytis)” for “early blight)”, “20°” for “27°”, “24°” for “20°”

Compound | pest or weed control at 50 ppm ([1]; Blumeria graminis, 192 h, read-out: Test C disease control rating (wheat powdery mildew)) | pest or weed control at 50 ppm (Septoria tritici; Zymoseptoria tritici, read-out: Test A disease control rating (wheat leaf blotch)) | pest or weed control at 50 ppm (Alternaria solani; Alternaria solani, read-out: Test F disease control rating (tomato early blight)) | pest or weed control at 50 ppm (Phakopsora pachyrhizi; Phakopsora pachyrhizi, read-out: Test D disease control rating (Asian soybean rust)) | pest or weed control at 50 ppm ([2]; read-out: Test B disease control rating (wheat leaf rust)) | pest or weed control at 50 ppm (Botrytis cinerea; Botrytis cinerea, read-out: Test E disease control rating (tomato Botrytis)) | Test C disease control rating (wheat powdery mildew) [1] | Test A disease control rating (wheat leaf blotch) (Septoria tritici) | Test F disease control rating (tomato early blight) (Alternaria solani) | Test D disease control rating (Asian soybean rust) (Phakopsora pachyrhizi) | Test B disease control rating (wheat leaf rust) [2] | Test E disease control rating (tomato Botrytis) (Botrytis cinerea)
Cc1nn(C)c(Nc2c(F)cccc2[N+](=O)[O-])c1-c1c(F)cc(F)cc1Br [Compound 1, 4-(2-bromo-4,6-difluorophenyl)-N-(2-fluoro-6-nitrophenyl)-1,3-dimethyl-1H-pyrazol-5-amine] | 100% | 100% | 99% | 84% | 100% | 100% | – | – | – | – | – | –
COc1cc(F)c(-c2c(C)nn(C)c2Nc2c(Cl)cc(F)cc2[N+](=O)[O-])c(F)c1 [Compound 2] | – | – | – | – | – | – | 99% | 100% | 61% | 94% | 100% | 99%
COCc1ccc(Nc2c(-c3ccc(F)cc3Cl)c(C)nn2C)c([N+](=O)[O-])c1 [Compound 4] | – | – | – | – | – | – | 76% | – | 0% | 0% | 86% | 74%
C#CCOc1ccc(Nc2c(-c3ccc(F)cc3Cl)c(C)nn2C)c([N+](=O)[O-])c1 [Compound 5] | – | – | – | – | – | – | 76% | 97% | 0% | 19% | 86% | 95%
CCc1ccc(Nc2c(-c3ccc(F)cc3Cl)c(C)nn2C)c([N+](=O)[O-])c1 [Compound 6] | – | – | – | – | – | – | 27% | – | 0% | 0% | 74% | 55%
Cc1nn(C)c(Nc2c([N+](=O)[O-])ccc(F)c2F)c1-c1ccc(F)cc1Cl [Compound 7] | – | – | – | – | – | – | 94% | 100% | 89% | 96% | 99% | 99%
Cc1nn(C)c(Nc2c(Cl)cc(Br)cc2[N+](=O)[O-])c1-c1ccc(F)cc1Cl [Compound 8] | – | – | – | – | – | – | 92% | 99% | 73% | 73% | 99% | 99%
Cc1nn(C)c(Nc2c(F)cc(F)cc2[N+](=O)[O-])c1-c1ccc(Cl)cc1Cl [Compound 9] | – | – | – | – | – | – | 97% | 100% | 99% | 0% | 100% | 97%
COc1ccc(Nc2c(-c3c(F)cccc3F)c(C)nn2C)c([N+](=O)[O-])c1 [Compound 87] | – | – | – | – | – | – | 98% | – | 93% | 0% | 99% | 98%
COc1ccc(Nc2c(-c3ccc(F)cc3F)c(C)nn2C)c([N+](=O)[O-])c1 [Compound 88] | – | – | – | – | – | – | 84% | – | 9% | 0% | 97% | 99%
COc1ccc(Nc2c(-c3c(F)cc(F)cc3Cl)c(C)nn2C)c([N+](=O)[O-])c1 [Compound 89] | – | – | – | – | – | – | 99% | – | 99% | 80% | 100% | 99%
Cc1ccc(Nc2c(-c3c(F)cc(F)cc3Cl)c(C)nn2C)c([N+](=O)[O-])c1 [Compound 106] | – | – | – | – | – | – | 98% | – | 68% | 0% | 100% | 99%
Cc1ccc(Nc2c(-c3ccc(F)cc3F)c(C)nn2C)c([N+](=O)[O-])c1 [Compound 107] | – | – | – | – | – | – | 61% | – | 0% | 0% | 91% | 98%
